Values after ≈ are worked out from the molar mass of the structure shown. Values joined by “and” are separate entries in the source; they are usually repeats but may differ in a detail not shown here. Identical values can stand only once. Each block holds one compound with its values, some of them ahead of it.
Tests used:
Test in all cases: ≥ marks a high value that may be exact or a test limit, other limits are often not marked, values filed in µg/mL are converted to µM
[1] = system: Candida albicans ATCC 20032
[2] = system: Staphylococcus aureus ATCC 25923
[3] = system: Listeria monocytogenes EGD
Escherichia coli ML-35p = system: Escherichia coli ML-35p
[4] = system: Staphylococcus aureus Cowan 1
[5] = system: Candida albicans ATCC 10231
Bacillus megaterium Bm11 = system: Bacillus megaterium Bm11
Staphylococcus capitis 1 = system: Staphylococcus capitis 1
[6] = system: Yersinia pseudotuberculosis YPIII
[7] = system: Escherichia coli ATCC 25922
[8] = system: Pseudomonas aeruginosa Ps4
[9] = system: Pseudomonas aeruginosa PAO1
Escherichia coli MG1655 = system: Escherichia coli MG1655
Candida albicans = system: Candida albicans
[10] = system: Staphylococcus haemolyticus
Staphylococcus aureus = system: Staphylococcus aureus
[11] = system: Bacillus subtilis ATCC 6633
[12] = system: Klebsiella pneumoniae ATCC BAA-1705
Escherichia coli W3110 = system: Escherichia coli W3110
[13] = system: Pseudomonas aeruginosa ATCC 27853
Escherichia coli UB1005 = system: Escherichia coli UB1005
[14] = system: Staphylococcus epidermidis C621
[15] = system: Enterococcus faecalis ATCC 29212

Compound: CC[C@H](C)[C@@H]1NC(=O)[C@H](CCCN=C(N)N)NC(=O)[C@@H]2CSSC[C@@H]3NC(=O)[C@H]([C@@H](C)O)NC(=O)CNC(=O)[C@H](Cc4ccc(O)cc4)NC(=O)[C@H](CCCN=C(N)N)NC(=O)[C@H](CCCN=C(N)N)NC(=O)[C@H](CCC(=O)O)NC(=O)CNC(=O)[C@H](C)NC(=O)[C@H](Cc4ccccc4)NC(=O)[C@H](CSSC[C@H](NC(=O)[C@H](Cc4ccccc4)NC(=O)[C@H](C)NC(=O)[C@H](Cc4c[nH]c5ccccc45)NC(=O)[C@H](C(C)C)NC(=O)[C@H](CCCN=C(N)N)NC(=O)CNC(=O)[C@H](CC(C)C)NC(=O)[C@H](Cc4ccc(O)cc4)NC(=O)[C@H](Cc4ccccc4)NC3=O)C(=O)N[C@H](C(=O)O)CSSC[C@H](NC(=O)[C@H](C)N)C(=O)N[C@@H](Cc3ccc(O)cc3)C(=O)N2)NC(=O)[C@H](C)NC(=O)[C@@H]2CCCN2C1=O [ACYCRIPACFAGERRYGTCFYLGRVWAFCC]
MIC [3]: 2.2 µM and 1.8 µM | MIC (Escherichia coli ML-35p): 2.4 µM and 7.1 µM

Compound: CC[C@H](C)[C@H](NC(=O)CNC(=O)[C@H](CO)NC(=O)[C@H](CC(C)C)NC(=O)[C@@H](NC(=O)[C@H](CCCN=C(N)N)NC(=O)[C@H](C)NC(=O)[C@@H](NC(=O)[C@H](CC(C)C)NC(=O)[C@@H]1CCCN1C(=O)[C@H](CC(C)C)NC(=O)[C@@H](N)Cc1ccccc1)[C@@H](C)CC)C(C)C)C(=O)N[C@@H](CC(C)C)C(N)=O [FLPLIARVLSGIL]
MIC [4]: 2.5 µM (≈ 3.53 µg/mL) | MIC [5]: 2.5 µM (≈ 3.53 µg/mL) | MIC (Bacillus megaterium Bm11): 2.5 µM (≈ 3.53 µg/mL) | MIC (Staphylococcus capitis 1): 5 µM (≈ 7.05 µg/mL) | MIC [6]: 20 µM (≈ 28.2 µg/mL) | MIC [7]: > 40 µM

Compound: CC[C@H](C)[C@H](NC(=O)[C@H](CCCN=C(N)N)NC(=O)[C@@H](NC(=O)[C@H](CC(N)=O)NC(=O)[C@H](CCCN=C(N)N)NC(=O)[C@H](CCC(N)=O)NC(=O)[C@H](Cc1c[nH]c2ccccc12)NC(=O)[C@@H](N)Cc1ccccc1)[C@@H](C)CC)C(=O)N[C@@H](CCCN=C(N)N)C(=O)N[C@@H](CCCN=C(N)N)C(N)=O [FWQRNIRIRR]
MIC [7]: 86.5 µM (≈ 125 µg/mL) | MIC [8]: ≥ 173 µM

Compound: CSCC[C@H](NC(=O)[C@@H](NC(=O)[C@H](CCCCN)NC(=O)[C@H](C)NC(=O)[C@H](CC(C)C)NC(=O)CN)C(C)C)C(=O)N[C@@H](CCCN=C(N)N)C(=O)N[C@@H](CCCCN)C(=O)N[C@H](C(=O)N[C@@H](CC(C)C)C(=O)NCC(=O)N[C@@H](Cc1ccc(O)cc1)C(=O)N[C@@H](CC(C)C)C(=O)N[C@@H](CCCN=C(N)N)C(=O)N[C@@H](CC(N)=O)C(=O)N[C@H](C(=O)N[C@@H](Cc1ccc(O)cc1)C(=O)N[C@@H](CCCCN)C(N)=O)C(C)C)C(C)C [GLAKVMRKVLGYLRNVYK]
MIC [9]: 8 µM (≈ 16.9 µg/mL) | MIC (Escherichia coli MG1655): 2.83 µM (≈ 5.96 µg/mL) | MIC (Candida albicans): 22.6 µM (≈ 47.7 µg/mL) | MIC [2]: 5.66 µM (≈ 11.9 µg/mL)

Compound: CC[C@H](C)[C@H](N)C(=O)N[C@@H](Cc1c[nH]c2ccccc12)C(=O)N[C@@H](Cc1c[nH]c2ccccc12)C(=O)N[C@@H](C)C(=O)N[C@@H](CCCCN)C(=O)N[C@@H](CC(C)C)C(=O)NCC(=O)N[C@@H](CC(C)C)C(=O)N[C@@H](CCCCN)C(=O)N[C@@H](CC(C)C)C(=O)N[C@@H](CC(C)C)C(=O)N[C@@H](CCCN=C(N)N)C(=O)N[C@@H](Cc1ccc(O)cc1)C(=O)N[C@@H](CCCN=C(N)N)C(=O)N[C@@H](CCCN=C(N)N)C(=O)N[C@@H](Cc1c[nH]c2ccccc12)C(=O)N[C@@H](Cc1ccc(O)cc1)C(=O)O [IWWAKLGLKLLRYRRWY]
MIC [12]: 4 µM (≈ 9.29 µg/mL) | MIC (Escherichia coli W3110): 2 µM (≈ 4.64 µg/mL)

Compound: C[C@H](NC(=O)[C@H](C)NC(=O)[C@H](C)NC(=O)[C@H](CCCCN)NC(=O)[C@@H](N)CCCCN)C(=O)N[C@@H](C)C(=O)N[C@@H](Cc1ccccc1)C(=O)N[C@@H](C)C(=O)N[C@@H](C)C(=O)N[C@@H](Cc1ccccc1)C(=O)N[C@@H](C)C(=O)N[C@@H](C)C(=O)N[C@@H](Cc1c[nH]c2ccccc12)C(=O)N[C@@H](Cc1ccccc1)C(=O)N[C@@H](C)C(=O)N[C@@H](C)C(=O)N[C@@H](Cc1ccccc1)C(=O)N[C@@H](C)C(=O)N[C@@H](C)C(=O)N[C@@H](C)C(=O)N[C@@H](C)C(=O)N[C@@H](CCCCN)C(=O)N[C@@H](CCCCN)C(=O)N[C@@H](CCCCN)C(=O)N[C@@H](CCCCN)C(N)=O [KKAAAAFAAFAAWFAAFAAAAKKKK]
MIC [11]: 2 µM (≈ 5.11 µg/mL) | MIC [13]: 8 µM (≈ 20.4 µg/mL) | MIC (Escherichia coli UB1005): 8 µM (≈ 20.4 µg/mL) | MIC [7]: 16 µM (≈ 40.9 µg/mL) | MIC [14]: 4 µM (≈ 10.2 µg/mL) | MIC [15]: > 32 µM | MIC [2]: 32 µM (≈ 81.8 µg/mL)

More lines, main results first:

MIC [1]: 23.1 µM (≈ 49.8 µg/mL) | MIC [2]: 5.8 µM (≈ 12.5 µg/mL)
Compound: CC[C@H](C)[C@@H]1NC(=O)[C@H](CO)NC(=O)[C@H](CCCCN)NC(=O)[C@H]([C@@H](C)O)NC(=O)[C@H](Cc2c[nH]c3ccccc23)NC(=O)[C@@H](NC(=O)CNC(=O)[C@H](CCCN=C(N)N)NC(=O)[C@H](CC(C)C)NC(=O)[C@H](C)NC(=O)[C@H](C)N)CSSC[C@@H](C(=O)N[C@@H](CO)C(=O)NCC(=O)N[C@@H](CCCCN)C(=O)N[C@@H](CCCN=C(N)N)C(=O)O)NC(=O)[C@@H]2CCCN2C(=O)[C@H](CCCCN)NC(=O)[C@@H]2CCCN2C(=O)[C@@H]2CCCN2C1=O [AALRGCWTKSIPPKPCSGKR]

MIC (Staphylococcus aureus): 300 µM (≈ 638 µg/mL)
Compound: CC(C)C[C@H](NC(=O)CNC(=O)CNC(=O)[C@H](C)NC(=O)[C@@H](NC(=O)[C@H](CC(N)=O)NC(=O)[C@H](CC(C)C)NC(=O)[C@H](CC(C)C)NC(=O)[C@H](CC(=O)O)NC(=O)[C@@H](NC(=O)[C@@H](NC(=O)[C@@H](NC(=O)CN)C(C)C)C(C)C)[C@@H](C)O)[C@@H](C)O)C(=O)N[C@@H](CC(C)C)C(=O)NCC(=O)N[C@@H](CC(N)=O)C(=O)N[C@@H](CC(C)C)C(=O)N[C@H](C(=O)NCC(=O)N[C@@H](CO)C(=O)N[C@@H](CC(C)C)C(=O)N[C@@H](CO)C(=O)NCC(N)=O)C(C)C [GVVTDLLNTAGGLLGNLVGSLSG]
MIC [10]: ≥ 400 µM

MIC [11]: ≥ 50.9 µM | MIC [7]: > 50.9 µM | MIC [1]: ≥ 50.9 µM | MIC [2]: > 50.9 µM
Compound: CC[C@H](C)[C@H](N)C(=O)N[C@@H](CC(C)C)C(=O)NCC(=O)N1CCC[C@H]1C(=O)N[C@H](C(=O)N[C@H](C(=O)N[C@@H](CO)C(=O)N[C@H](C(=O)N[C@H](C(=O)NCC(=O)N[C@@H](CC(N)=O)C(=O)N[C@@H](C)C(=O)N[C@@H](CC(C)C)C(=O)NCC(=O)NCC(=O)N[C@@H](CC(C)C)C(=O)N[C@@H](CC(C)C)C(=O)N[C@@H](CCCCN)C(=O)N[C@@H](CC(N)=O)C(=O)N[C@@H](CC(C)C)C(N)=O)[C@@H](C)CC)[C@@H](C)O)[C@@H](C)CC)C(C)C [ILGPVISTIGNALGGLLKNL]

MIC [11]: ≥ 62.3 µM | MIC [7]: > 62.3 µM | MIC [1]: ≥ 62.3 µM | MIC [2]: > 62.3 µM
Compound: CC[C@H](C)[C@H](N)C(=O)N[C@@H](CC(C)C)C(=O)NCC(=O)N1CCC[C@H]1C(=O)N[C@H](C(=O)N[C@@H](CC(C)C)C(=O)NCC(=O)N[C@@H](CC(C)C)C(=O)N[C@H](C(=O)N[C@@H](CO)C(=O)N[C@@H](CC(N)=O)C(=O)N[C@@H](C)C(=O)N[C@@H](CC(C)C)C(=O)NCC(=O)NCC(=O)N[C@@H](CC(C)C)C(=O)N[C@@H](CC(C)C)C(N)=O)C(C)C)C(C)C [ILGPVLGLVSNALGGLL]

MIC [12]: ≥ 32 µM | MIC (Escherichia coli W3110): 4 µM (≈ 9.38 µg/mL)
Compound: CC[C@H](C)[C@H](N)C(=O)N[C@@H](Cc1c[nH]c2ccccc12)C(=O)N[C@@H](Cc1c[nH]c2ccccc12)C(=O)N[C@@H](C)C(=O)N[C@@H](CCCCN)C(=O)N[C@@H](Cc1c[nH]c2ccccc12)C(=O)NCC(=O)N[C@@H](CC(C)C)C(=O)N[C@@H](CCCCN)C(=O)N[C@@H](CC(C)C)C(=O)N[C@@H](CC(C)C)C(=O)N[C@@H](CCCN=C(N)N)C(=O)N[C@@H](Cc1ccc(O)cc1)C(=O)N[C@@H](CCCN=C(N)N)C(=O)N[C@@H](CCCN=C(N)N)C(=O)N[C@H](C(=O)N[C@@H](Cc1c[nH]c2ccccc12)C(=O)O)[C@@H](C)CC [IWWAKWGLKLLRYRRIW]

MIC [8]: ≥ 162 µM
Compound: CC[C@H](C)[C@H](NC(=O)[C@H](CC(N)=O)NC(=O)[C@H](CCCN=C(N)N)NC(=O)[C@H](CCC(N)=O)NC(=O)[C@H](Cc1c[nH]c2ccccc12)NC(=O)[C@@H](N)CCCCN)C(=O)N[C@@H](CCCN=C(N)N)C(=O)N[C@@H](CCCCN)C(=O)N[C@H](C(=O)N[C@@H](CCCN=C(N)N)C(=O)N[C@@H](CCCN=C(N)N)C(N)=O)C(C)C [KWQRNIRKVRR]
